Assay results reported in patent US20220333078A1, “Method for ex vivo expansion CD34+HSPCs into NK cells using an aryl hydrocarbon receptor antagonist” (Stichting Radboud universitair medisch centrum, priority 2015, published 2022).

Experiments:
CD34+UCB cells = details: after 25 days of culture with IL-1β; cited from earlier work
[1] = test system: G-CSF mobilized CD34+HSPCs; assay: Ex vivo cytokine-based expansion and NK cell differentiation of G-CSF mobilized peripheral blood CD34+HSPCs with or without 2 μM SR1; design: species or system human
Experimental: (§1) Bone marrow samples were collected from healthy donors after written informed consent. Bone marrow-derived mononuclear cells (BM-MNCs) were isolated by Ficoll-hypaque (1.077 g/mL; GE Healthcare, Uppsala, Sweden) density gradient centrifugation. Peripheral blood-derived mononuclear cells (PB-MNCs) were obtained from aphaeresis material from stem cell donors who were treated with G-CSF (Neupogen®) 10 μg/kg/day subcutaneously for 5 to 6 days, after written informed consent. CD34+HSPCs were isolated using anti-CD34 immunomagnetic beads (Miltenyi Biotech, Bergisch Gladbach, Germany) according to manufacturer's instructions. CD34+HSPCs were directly used for NK cell generation.
CD34+HSPCs were plated into 24-well or 6-well tissue culture plates (Corning Incorporated, Corning, N.Y., USA). Cells were expanded during 9 or 10 days with a high-dose cytokine cocktail (Expansion cocktail I) consisting of 25 ng/mL IL-7 (Immunotools), 25 ng/mL SCF (Immunotools), 25 ng/mL TPO (Cellgenix) and 25 ng/mL Flt3L (Immunotools). From day 9 or 10 until day 14 or 15, TPO was replaced by 20 ng/mL IL-15 (Miltenyi). After day 14 or 15, cell differentiation was initiated by replacing Expansion cocktail I by a new high-dose cytokine cocktail (Differentiation cocktail) consisting of 20 ng/mL IL-7, 20 ng/mL SCF, 20 ng/mL IL-15 and 1000 U/mL IL-2 (Proleukin®; Chiron, München, Germany). Where mentioned, 2 μM StemRegenin1 (SR1; Cellagen Technology, San Diego, Calif., USA) was added to the culture medium (see FIG. 1A). Cells were cultured in Cellgro GMP DC medium (Cellgenix, Freiburg, Germany) supplemented with 10% human serum (HS; Sanquin Bloodbank, Nijmegen, The Netherlands) and a low dose cytokine cocktail consisting of […] G-CSF (Filgrastim, “Neupogen”—Amgen Corp. USA), 10 μg/mL GM-CSF and 50 μg/mL IL-6 (both Immunotools, Friesoythe, Germany). During the first 14 or 15 days of culture, low molecular weight heparin (Clivarin®; Abbott, Wiesbaden, Germany) was added to the medium in a final concentration of 20 μg/mL. Freshly isolated CD34+ cells were plated at a concentration of 1-4E+5/mL. After 3 days of culture, cells were transferred to a new plate in order to deplete for stromal cells. From day 14 or 15 onward, cell counts were kept above 2E+6 cells/mL. Cell cultures were refreshed with at least 30% new medium every 2 to 3 days. Cultures were maintained at 37° C., in 95% humidity, and 5% CO2. NK cells were used in experiments after 5 weeks of culture.
(§2) Cell numbers and expression of cell-surface markers were determined by FCM. Anti-human CD45-ECD (J.33, Beckman Coulter, Woerden, The Netherlands) and anti-CD56-PC7 (HCD56, Biolegend, San Diego, Calif., USA) antibodies were used to follow cell number and NK cell differentiation during culture using the Coulter FC500 flow cytometer (Beckman Coulter). The population of viable CD45+ cells was determined by exclusion of 7-AAD (Sigma, St Louis, Mo., USA) positive cells. For phenotypical analysis, cells were incubated with antibodies in FCM buffer (PBS/0.5% bovine serum albumin (BSA; Sigma) for 30 minutes at 4° C. After washing, cells were resuspended in FCM buffer and analyzed. The following conjugated monoclonal antibodies were used for NK cell phenotyping: anti-NKG2A-PE (Z199; Beckman Coulter), anti-DNAM-1-FITC (DX 11; BD Biosciences Pharmingen, Breda, The Netherlands), anti-CD16-FITC (3G8), anti-CD3-FITC (UCHT1), anti-NKG2D-PE (1D11), anti-NKp30-PE (P30-15), anti-NKp44-PE (P44-8), anti-NKp46-PD (9E5), anti-CD158b-PE (Dx27), anti-CD158e-PE (Dx9), anti-CD158a/h-PE (HP-MA4), anti-CD62L-PE (DREG56), anti-CD253-PE (RIK-2), anti-CXCR3-PE (G025H7), anti-CXCR4-PE (12G5), anti-IgG1-PE (MOPC-21), anti-IgG2a-PE (MOPC-173), anti-IgG2b-PE (MCP-11), anti-IgG1-FITC (MOPC-21; all from Biolegend).

BM-derived CD34+HSPCs = assay: Ex vivo cytokine-based expansion and NK cell differentiation of bone marrow-derived CD34+HSPCs with or without 2 μM SR1; design: species or system human
Experimental: as §1
CD34+HSPCs were plated into 24-well or 6-well tissue culture plates (Corning Incorporated, Corning, N.Y., USA). Cells were expanded during 9 or 10 days with a high-dose cytokine cocktail (Expansion cocktail I) consisting of 25 ng/mL IL-7 (Immunotools), 25 ng/mL SCF (Immunotools), 25 ng/mL TPO (Cellgenix) and 25 ng/mL Flt3L (Immunotools). […]
as §2, with “Anti-human CD45-ECD (J.33, Beckman Coulter, Woerden, The Netherlands) and anti-CD56-PC7 (HCD56, Biolegend, San Diego, Calif., USA) antibodies were used to follow cell number and NK cell differentiation during culture using the Coulter FC500 flow cytometer (Beckman Coulter).” left out

AhR = assay: qRT-PCR of AhRR and NK cell transcription factors in HSPC-NK cultures with or without SR1; format: cell-based, human
Experimental: Total RNA from 0.5-2E+5 cells, collected weekly from HSPC-NK cell cultures, was isolated using the Quick-RNA™ MicroPrep Kit (Zymo Research, CA, USA). Next, cDNA was synthesized using M-MLV-reverse transcriptase (Invitrogen) in a standard reaction as described before, after which real-time PCR was performed using the following Taqman Gene expression assays (Applied Biosystems, Forster City, Calif., USA): AhRR (Hs01005075_m1); TOX (Hs01055573_m1); ID2 (Hs04187239_m1); EOMES (Hs00172872_m1); GATA3 (Hs00231122_m1); SH2D1B (Hs01592483_m1); IFNG (Hs00989291_m1); GZMB (Hs01554355_m1); PRF1 (Hs99999108_m1). For all genes, Ct values were normalized to GAPDH (Hs02758991_g1) by calculating ΔCt=Cttarget gene−CtGAPDH per sample. Finally, gene expression levels were quantified relative to GAPDH as follows: 2^(−[ΔCt]).
After 5 weeks of culture, CD56+ cells were isolated from the total cultured cells. For this purpose cells were stained for 15 minutes at 4° C. using the appropriate concentration of anti-CD56-PEcy7 (CD56-PC7 (HCD56, Biolegend). Cells were washed and resuspended in FACS buffer at a concentration of 1.5E+6/mL, and subsequently sorted at the FACSAria Cell Sorter (BD Biosciences).

CD56+NK cells = assay: FCM phenotype of CD56+NK cells after 35 days of culture; format: cell-based, human; details: generated in the presence vs absence of SR1
Experimental: as §2

[2] = test system: CD34+ cells enriched from UCB, BM and mobilized blood; assay: SR1-based culture without heparin and low dose cytokines (UCB, BM and mobilized blood CD34+ cells); format: cell-based, human
From the text: Representation of the new ex vivo SR1-based culture protocol used for the generation of NK cells. In the expansion step, CD34+ cells are expanded and differentiated into NK progenitors using SCF, Flt3L, IL-7, TPO and an aryl hydrocarbon antagonist, preferably SR1. Thereafter, NK progenitors are further differentiated using IL-15, IL-12 and/or IL-2.
In earlier studies, we exploited a phased based addition of cytokines in heparin-based basal media (5-7). Heparin is able to bind certain cytokines, reducing their degradation and perhaps presenting them in a more physiological manner. Furthermore, low dose cytokine cocktail containing G-CSF, GM-CSF and IL-6 was being used, which was based on studies using the fetal liver-derived stromal cell line AFT024 [59]. Since we observed that the AhR antagonist is a crucial component for the ex vivo expansion of NK cells from BM and mobilized blood CD34+HSPCs, we investigated whether we could simplify the culture method by leaving out heparine and low dose cytokines G-CSF, GM-SCF and IL-6 that have mainly an effect on myeloid progenitor cells (see FIG. 7).

HSPC-NK cells = assay: Proliferation (CFSE dilution) and viability of HSPC-NK cells cultured 7 days with MPA or CsA; format: cell-based, human
Experimental: HSPC-NK cells were cultured according to our culture protocol for 35 days. After 35 days, NK cells were labeled with 1 μM CFSE as described previously. After staining, cells were resuspended in differentiation medium at a concentration of 2E+6/mL and plated in duplicate in a 96-well plate. […] After 7 days, cells were harvested. The number of viable target cells was quantified by FCM by gating on forward scatter and side scatter and exclusion of 7-AAD positive cells. Proliferation was analyzed by determining the CFSE dilution within CD56+ cells.

K562 cells = assay: K562 killing and IFN-γ production by NK cells cultured in the presence of MPA or CsA; format: cell-based, human
Experimental: Cell lines were labeled with 1 μM carboxyfluorescein diacetate succinimidyl ester (CFSE; Molecular Probes Invitrogen, Eugene, Oreg., USA) and primary AML blasts were labeled with 1.5 μM CFSE, both in a concentration of 1E+7/mL for 10 minutes at 37° C. The reaction was terminated by adding an equal volume of FCS. After washing, cells were resuspended in IMDM/10% FCS to a final concentration of 3E+5/mL. Target cells (3E+4) were co-cultured in triplicate with effector cells at different effector:target (E:T) ratios in a total volume of 200 μL IMDM/10% FCS in 96-wells round-bottom plates (Corning Incorporated). Effector cells and target cells alone were plated out in triplicate as controls. […] Cells were harvested and the number of viable target cells was quantified by FCM by gating on forward scatter and side scatter and exclusion of 7-AAD positive cells. Target cell survival was calculated as follows: % survival=([absolute number of viable CFSE+ target cells co-cultured with NK cells]/[absolute number of viable CFSE+ target cells cultured in medium])×100%. The percentage specific lysis was calculated as follows: % lysis=(100−[% survival]), as described earlier by Jedema et al. Degranulation of NK cells during overnight co-culture was determined as the percentage of CD107a expressing cells measured by FCM. […]

[3] = FACS-sorted CD56+NK cells after 5 weeks, SR1 vs no SR1

IL-1β: cytokine added at the beginning of CD34+UCB culture in the protocol of Ambrosini et al.
overall percentage of CD56+NK cells expressing CD161, LFA1, NKG2A, NKp46, EOMES and perforin (CD34+UCB cells): < 20%

CC(C)n1cnc2c(NCCc3ccc(O)cc3)nc(-c3csc4ccccc34)nc21 [SR1, StemRegenin 1]
Mean NK cell yield after 5 weeks of culture ([1]; G-CSF mobilized CD34+ cells, 2 μM SR1, range 115-904 fold, n=10): 235 fold
purity (NK cell differentiation, CD56+) ([1]; G-CSF mobilized CD34+HSPCs, with SR1, 5 weeks): 83%±9%
expansion of CD34+ cells ([1]; PB-derived HSPCs, addition of 2 μM SR1 vs no SR1): strongly enhanced expansion of CD34+ cells
amount of CD3+ T cells ([1]; SR1-based NK cell cultures): 0.1%±0.1%
average expansion of G-CSF-mobilized CD34+ cells ([1]; SR1-based protocol): 268 fold
frequency of CD34+ cells at the end of the culture process ([1]; SR1 cultures): 0.7%±0.4%
remaining non-NK cells: CD14+ and/or CD15+ mature monocytic and myelocytic cells ([1]; SR1 cultures, end of culture): 11%±6%
purity (NK cell differentiation, CD56+) (BM-derived CD34+HSPCs; BM-derived CD34+ cells, with SR1, 5 weeks): 84%±18%
Mean NK cell yield after 5 weeks of culture (BM-derived CD34+HSPCs; BM-derived CD34+HSPCs, 2 μM SR1, range 33-301, n=4): 129 fold
expansion of CD34+ cells (BM-derived CD34+HSPCs; BM-derived HSPCs, addition of 2 μM SR1 vs no SR1): strongly enhanced expansion of CD34+ cells
IFN-γ mRNA expression (AhR; FACS-sorted CD56+NK cells after 5 weeks, not exposed to target cells, SR1 vs no SR1): not increased
GATA-3 and EAT-2 expression (AhR; [3]): similar
GZMB and PERF expression (AhR; [3]): slightly higher, but not significantly increased
TOX, ID2 and EOMES expression (AhR; [3]): did not observe increased expression
AhRR expression relative to GAPDH (AhR; total cells, 2 μM SR1 vs no SR1): efficient down regulation
EOMES expression relative to GAPDH (AhR; total cells, SR1 vs no SR1): upregulated from week three onward
GATA-3 and EAT-2 (SH2D1B) expression relative to GAPDH (AhR; total cells, SR1 vs no SR1): increased in cells cultured in the presence of SR1
ID2 expression relative to GAPDH (AhR; total cells, SR1 vs no SR1): increased from day 14 onwards
TOX expression relative to GAPDH (AhR; total cells, from day 7 onward, SR1 vs no SR1): higher expression
presence of CD62L, CXCR3, DNAM-1 and TRAIL on CD56+ cells (CD56+NK cells): significantly higher
expansion of CD56+NK cells from CD34+ cells ([2]; 2 μM SR1 for 21 days, no heparin, G-CSF, GM-CSF, IL-6): promotes the expansion of CD56+NK cells
remaining non-NK cells, mainly CD14+ monocytic cells ([2]; SR1-based cultures without heparin and low dose cytokines): < 20%

COc1c(C)c2c(c(O)c1C/C=C(\C)CCC(=O)O)C(=O)OC2 [MPA, mycophenolic acid]
proliferation of HSPC-NK cells (HSPC-NK cells; MPA 0.1 μg/ml): already inhibited
NK cell viability (HSPC-NK cells; MPA 0.1 to 10 μg/mL or CsA 0.01 to 1 μg/mL): induced dose-dependent cell death
NK cell-mediated killing of K562 cells (K562 cells; NK cells cultured with drug, overnight, E:T 1:1): impaired killing
IFN-γ production (K562 cells; NK cells incubated with drug, overnight co-culture with K562, E:T 1:1): impaired IFN-γ production
